Laboratory results: patent US20100009997A1, “METHOD OF TREATING A METABOLIC OR NEUROPSYCHIARTY DISORDER WITH A BH4 DERIVATIVE PRODRUG” (BIOMARIN PHARMACEUTICAL INC., priority 2007, published 2010)

Tests used:
[1] = design: species or system cynomolgus monkeys; conditions: female, cynomolgus monkey, in vivo, po, 10 mg/kg
Description: The example allows comparison of the pharmacokinetics of sapropterin and the BH4 derivative after a single oral administration in groups of cynomolgus monkeys.
A single dose of sapropterin (10 mg/kg) was administered orally to a first group of female cynomolgus monkeys (3/group) under fasting conditions. A single dose of Compound I (10 mg/kg) was administered orally to second group of female cynomolgus monkeys (3/group) under fasting conditions.
The bioavailability (F) following a 10 mg/kg oral administration to female monkeys was about 9%.

[2] = design: species or system Sprague Dawley rats; conditions: male, Sprague Dawley, rat, in vivo, po, 100 mg/kg
Description: This example allows for comparison of the pharmacokinetics of the BH4 derivative versus that of BH4 following single oral administration in rats.
Single doses of BH4 (10 and 100 mg/kg) were administered orally to a […] of male Sprague Dawley rats (6 weeks old) under fasting conditions. Single doses of Compound I were administered orally to a […] of male Sprague Dawley rats (6 weeks old) under fasting conditions.
With respect to the administered BH4, the maximum total biopterin concentrations in plasma 2 hrs and 1 hr post-dosing were 108 ng/ml (i.e., about 3 fold the endogenous level) and 1227 ng/ml (i.e., about 30 fold the endogenous level), respectively. […] The ratio of reduced biopterin to total biopterins in plasma (i.e., the reduced-form ratio) was relatively static (73%-96%).

C[C@H](O)[C@H](O)[C@H]1CNc2nc(N)[nH]c(=O)c2N1 [sapropterin]
bioavailability (F) [1]: about 9% | plasma elimination half-life of biopterin [1]: approximately 1.4 hrs

C[C@H](O)[C@H](O)[C@H]1CNc2nc(N)[nH]c(=O)c2N1 [BH4, (6R)-5,6,7,8-tetrahydro-L-biopterin]
biopterin elimination half-life (t1/2) [2]: about 1.1 hr
